Laboratory results as given in patent EP0260127A2, “Xanthine derivatives, their preparation and pharmaceutical compositions containing them” (BEECHAM - WUELFING GmbH & Co. KG, priority 1986, dated 1988).
Marks after values point to notes of the source that are not given here.

Key:
[1] = biological target: cyclic AMP phosphodiesterase; assay: Inhibition of cyclic AMP phosphodiesterase (Dixon plot); format: biochemical; conditions: homogenates of rat skeletal muscle; 0.31 µM cyclic AMP as substrate; estimated from Dixon plot; read-out: Apparent Ki value
Experimental: 4. Inhibition of cyclic AMP phosphodiesterase.
The activity of cyclic AMP phosphodiesterase in homogenates of rat skeletal muscle was measured in the presence of various concentrations of compounds of formula (I) using 0.31 µM cyclic AMP as substrate. The reciprocal of the reaction rate was plotted on the y axis against the concentration of each compound on the x axis (Dixon plot). The apparent Ki value was estimated by extrapolating the steeper linear portion of the Dixon plot to the x axis and obtaining the negative intercept on the x axis.

Mongolian gerbils = assay: Gerbil ischaemic deficit passive avoidance test (recall latency following transient forebrain ischaemia); format: in vivo; conditions: 3mg/kg p.o., seven administrations; gerbils after 5min bilateral carotid artery ligation; ischaemic controls 14, sham-ligated controls 33
Experimental: 2. The Gerbil Ischaemic Deficit Passive Avoidance Test.
Mongolian gerbils were conditioned to avoid entering a dark compartment by means of a footshock (maximally 50V, 2s duration) received when entering from the light section of a two compartment box. Recollection of the footshock was examined 24h later by replacing the gerbils in the two compartment box and measuring the recall latency, the time taken to re-enter the dark compartment.
Effect of test compound on recall latency in the gerbil following transient forebrain ischaemia.
A learning or memory deficit was induced in the gerbils by a transient (5min) bilateral carotid artery ligation, performed 24h prior to conditioning, under light hexobarbital anaesthesia.
Compounds, being examined for an effect on learning or memory in gerbils which had undergone carotid occlusion, were administered seven times during the experiment. The initial administration was during the period of forebrain ischaemia, the third and seventh administrations were 10min prior to conditioning and recall testing, respectively, and the remainder were given at intermediate time points.
A long recall latency indicates good information acquisition or retrival.

[2] = tested on: rat ischaemic gastrocnemius muscle; assay: Effect on oxygen tension (pO2) of rat ischaemic gastrocnemius muscle; format: in vivo; conditions: ischaemic hindlimb, femoral artery ligated 2-4 days previously

| SMILES | Ki [1] [µM] | Percentage of animals with recall latencies >60s (Mongolian gerbils) | CHANGE in pO2 (Torr) (mean ± SEM) ([2]; 5.0 mg/kg i.v., n 4) | CHANGE in pO2 (Torr) (mean ± SEM) ([2]; 1.0 mg/kg i.v., n 8) |
| --- | --- | --- | --- | --- |
| CCCCn1c(=O)n(CCC(C)O)c(=O)c2c1ncn2CC(C)O (centres unmarked) [Example E5, 1-(3-Hydroxybutyl)-3-n-butyl-7-(2-hydroxypropyl) xanthine] | 128 | 32* | 2.3 ± 1.6 |  |
| CCCCn1c(=O)c2c(ncn2CC(C)O)n(CCC(C)O)c1=O (centres unmarked) [Example E6, 1-n-Butyl-3-(3-hydroxybutyl)-7-(2-hydroxypropyl)xanthine] | 94 | 33* |  | 2.2 ± 0.6 |
| CCCCn1c(=O)n(CCC(C)O)c(=O)c2c1ncn2CC(C)=O (centres unmarked) [Example E7, 1-(3-Hydroxybutyl)-3-n-butyl-7-(2-oxopropyl)xanthine] | 13 |  |  |  |
| CCCCn1c(=O)n(CCC(C)=O)c(=O)c2c1ncn2CC(C)O (centres unmarked) [Example E8, 1-(3-Oxobutyl)-3-n-butyl-7-(2-hydroxypropyl) xanthine] | 160 |  |  |  |
| CCCCn1c(=O)c2c(ncn2CC(C)=O)n(CCC(C)O)c1=O (centres unmarked) [Example E9, 1-n-Butyl-3-(3-hydroxybutyl)-7-(2-oxopropyl)xanthine] | 13 |  |  |  |
| CC(=O)Cn1cnc2c1c(=O)n(CCC(C)O)c(=O)n2CCC(C)O (centres unmarked) [Example E11, 1,3-bis-(3-Hydroxybutyl)-7-(2-oxopropyl)xanthine] | 81 |  |  |  |
| CC(O)CCn1c(=O)c2c(ncn2CC(C)O)n(CCC(C)O)c1=O (centres unmarked) [Example E14, 1,3-bis-(3-Hydroxybutyl)-7-(2-hydroxypropyl)xanthine] | 815 |  |  |  |
